Experimental data from patent US11542233B2, “Compounds, compositions and methods of use” (Aquinnah Pharmaceuticals, Inc., priority 2016, dated 2023).

System: TDP-43 aggregation in PC12 cells stably expressing GFP-tagged mutant TDP-43 (TDP-43^Q33IK::eGFP)
Assay: In vitro efficacy assay: inhibition of TDP-43 inclusions, concentration-response, fluorescence microscopy
Format: cell-based
Settings: Rattus norvegicus, PC-12, PC12 cells, 1 hour pre-treatment, 15 μM sodium arsenite for 23 hours, 10-point dose response curve
Description: Exemplary compounds of the invention were evaluated for efficacy in inhibiting TDP-43 inclusions using a concentration-response assay. Briefly, PC12 cells stably expressing a GFP-tagged mutant form of TDP-43 (TDP-43^Q33IK::eGFP) were pre-treated for 1 hour with exemplary compounds and stressed with 15 μM sodium arsenite for 23 hours to induce TDP-43 aggregation. The inhibitory effect on TDP-43 aggregation was measured using fluorescence microscopy. The ratio of cells with TDP-43 aggregates was calculated based on the total number of cells with detectable GFP expression. In the table, “A” indicates an IC50 of less than 100 nM, “B” indicates an IC50 range from 100 nM to 500 nM; “C” indicates an IC50 range from 500 nM to 2 μM; and “D” indicates an IC50 greater than 2 μM.

SMILES | IC50
CCN(C(=O)c1cc2ccccc2[nH]1)[C@H]1CCC[C@@H](NCc2nc3ccccc3s2)C1 [Compound 451] | 0.1 to 0.5 µM
CCN(C(=O)c1cc2ccccc2[nH]1)[C@H]1CCC[C@@H](NCc2ccnc(O)c2)C1 [Compound 452] | > 2 µM
CCN(C(=O)c1cc2ccccc2[nH]1)[C@H]1CCC[C@@H](NCc2cnoc2)C1 [Compound 453] | 0.1 to 0.5 µM
CCN(C(=O)c1cc2ccccc2[nH]1)[C@H]1CCC[C@@H](NCc2nnc(C)s2)C1 [Compound 454] | < 0.1 µM
CCN(C(=O)c1cc2ccccc2[nH]1)[C@H]1CCC[C@@H](NCc2cc(C3CC3)no2)C1 [Compound 455] | < 0.1 µM
CCN(C(=O)c1cc2ccccc2[nH]1)[C@H]1CCC[C@@H](NCc2conc2C2CC2)C1 [Compound 456] | < 0.1 µM
CCN(C(=O)c1cc2ccccc2[nH]1)[C@H]1CCC[C@@H](NCc2ccnc(OC)c2)C1 [Compound 457] | < 0.1 µM
CCN(C(=O)c1cc2ccccc2[nH]1)[C@H]1CCC[C@@H](NCc2cc(C)no2)C1 [Compound 458] | 0.1 to 0.5 µM
CCN(C(=O)c1cc2ccccc2[nH]1)[C@H]1CCC[C@@H](NCc2ccc3ocnc3c2)C1 [Compound 459] | < 0.1 µM
CCN(C(=O)c1cc2ccccc2[nH]1)[C@H]1CCC[C@@H](NCc2cc(C3CC3)on2)C1 [Compound 460] | < 0.1 µM
CCN(C(=O)c1cc2ccccc2[nH]1)[C@H]1CCC[C@@H](NCc2cnn(C)c2)C1 [Compound 461] | 0.5 to 2 µM
CCN(C(=O)c1cc2ccccc2[nH]1)[C@H]1CCC[C@@H](NCc2cc(C)on2)C1 [Compound 462] | < 0.1 µM
C#CCOc1ccc(C(=O)c2ccc(CN[C@@H]3CCC[C@H](N(CC)C(=O)c4cc5ncccc5[nH]4)C3)cc2)cc1 [Compound 463, N-ethyl-N-((1S,3R)-3-((4-(4-(prop-2-yn-1-yloxy)benzoyl)benzyl)amino)cyclohexyl)-1H-pyrrolo[3,2-b]pyridine-2-carboxamide] | < 0.1 µM
CCN(C(=O)c1cc2ccccc2[nH]1)[C@H]1CCC[C@@H](NCc2ccc3ncoc3c2)C1 [Compound 464, N-((1S,3R)-3-((benzo[d]oxazol-6-ylmethyl)amino)cyclohexyl)-N-ethyl-1H-indole-2-carboxamide] | < 0.1 µM
CCN(C(=O)c1cc2ccccc2[nH]1)[C@H]1CCC[C@@H](NCc2nccs2)C1 [Compound 465, N-ethyl-N-((1S,3R)-3-((thiazol-2-ylmethyl)amino)cyclohexyl)-1H-indole-2-carboxamide] | 0.5 to 2 µM
CCN(C(=O)c1cc2ccccc2[nH]1)[C@H]1CCC[C@@H](NCc2c[nH]cn2)C1 [Compound 466] | > 2 µM
CCN(C(=O)c1cc2ccccc2[nH]1)[C@H]1CCC[C@@H](NCc2nnc(C3CC3)s2)C1 [Compound 467, N-((1S,3R)-3-(((5-cyclopropyl-1,3,4-thiadiazol-2-yl)methyl)amino)cyclohexyl)-N-ethyl-1H-indole-2-carboxamide] | < 0.1 µM
CCN(C(=O)c1cc2ncccc2[nH]1)[C@H]1CCC[C@@H](NCc2nnc(C)o2)C1 [Compound 468, N-ethyl-N-((1S,3R)-3-(((5-methyl-1,3,4-oxadiazol-2-yl)methyl)amino)cyclohexyl)-1H-pyrrolo[3,2-b]pyridine-2-carboxamide] | 0.5 to 2 µM
CCN(C(=O)c1cc2ccccc2[nH]1)[C@H]1CCC[C@@H](NCc2nnc(C)o2)C1 [Compound 469] | 0.1 to 0.5 µM
CCN(C(=O)c1cc2ncccc2[nH]1)[C@H]1CCC[C@@H](NCc2cc(C(C)C)no2)C1 [Compound 470] | < 0.1 µM
CCN(C(=O)c1cc2ccccc2[nH]1)[C@H]1CCC[C@@H](NCc2cc(C(C)C)no2)C1 [Compound 471] | < 0.1 µM
CCN(C(=O)c1nc2ccccc2[nH]1)[C@H]1CCC[C@@H](NCc2cccc(OC(F)(F)F)c2)C1 [Compound 472] | < 0.1 µM
CCN(C(=O)c1nc2ccccc2[nH]1)[C@H]1CCC[C@@H](NCc2ccc(OC(F)(F)F)cc2)C1 [Compound 473] | < 0.1 µM
CCN(C(=O)c1nc2ccccc2[nH]1)[C@H]1CCC[C@@H](NCc2ccc3nccn3c2)C1 [Compound 474] | 0.1 to 0.5 µM
